{
  "source": "paper PMC8284453",
  "about": "(Antimicrobial Agents and Chemotherapy, 2021)",
  "key": {"[1]": {"tested_on": "Enterobacterales expressing class D oxacillinases (OXA-48/48-like)", "experiment": "organism not typed", "assay_type": "cell-based, E. coli, K. pneumoniae"}, "E. coli ESBL4 (CTX-M-15)": {"tested_on": "E. coli ESBL4 (CTX-M-15)", "experiment": "Broth microdilution MIC", "assay_type": "cell-based", "details": "Escherichia coli"}, "[2]": {"tested_on": "E. cloacae ECL01 (TEM-72, ACT-1, P99AmpC)", "experiment": "Broth microdilution MIC", "assay_type": "cell-based", "details": "Enterobacter cloacae"}, "[3]": {"tested_on": "Enterobacterales expressing class A carbapenemases (KPC)", "experiment": "organism not typed", "assay_type": "cell-based, K. pneumoniae, E. coli, E. cloacae, Klebsiella oxytoca"}, "[4]": {"details": "25 isolates, BLI fixed at 4 μg/ml, AMC 2:1"}},
  "note": "Where two headings read alike, the source gives them in different places.",
  "data": [
    {"compound": "Nc1nc(/C(=C/CC(=O)O)C(=O)N[C@@H]2C(=O)N3C(C(=O)O)=CCS[C@H]23)cs1", "note": "[CTB, ceftibuten]", "values": [
      {"measurement": "MIC50", "setting": "[1]; [4]", "result": 16, "unit": "µg/mL"},
      {"measurement": "MIC90", "setting": "[1]; [4]", "result": "≥ 64", "unit": "µg/mL"},
      {"measurement": "MIC", "setting": "[1]; E. coli 664507 (OXA-48)", "result": 16, "unit": "µg/mL"},
      {"measurement": "MIC", "setting": "[1]; E. coli 664516 (OXA-48)", "result": 32, "unit": "µg/mL"},
      {"measurement": "MIC", "setting": "[1]; E. coli 664520 (OXA-48)", "result": 16, "unit": "µg/mL"},
      {"measurement": "MIC", "setting": "[1]; E. coli 664522 (OXA-48)", "result": 32, "unit": "µg/mL"},
      {"measurement": "MIC", "setting": "[1]; E. coli 664523 (OXA-48)", "result": 16, "unit": "µg/mL"},
      {"measurement": "MIC", "setting": "[1]; E. coli 664524 (OXA-48)", "result": 16, "unit": "µg/mL"},
      {"measurement": "MIC", "setting": "[1]; E. coli 664525 (OXA-48)", "result": 32, "unit": "µg/mL"},
      {"measurement": "MIC", "setting": "[1]; E. coli 664526 (OXA-48)", "result": 16, "unit": "µg/mL"},
      {"measurement": "MIC", "setting": "[1]; E. coli 664528 (OXA-48)", "result": 16, "unit": "µg/mL"},
      {"measurement": "MIC", "setting": "[1]; E. coli 787112 (OXA-48)", "result": "≥ 64", "unit": "µg/mL"},
      {"measurement": "MIC", "setting": "[1]; E. coli SI-422 (OXA-48)", "result": 0.25, "unit": "µg/mL"},
      {"measurement": "MIC", "setting": "[1]; E. coli VER (OXA-48)", "result": 0.06, "unit": "µg/mL"},
      {"measurement": "MIC", "setting": "[1]; K. pneumoniae 6299 (OXA-163)", "result": 8, "unit": "µg/mL"},
      {"measurement": "MIC", "setting": "[1]; K. pneumoniae 515746 (OXA-48), first line", "result": 16, "unit": "µg/mL"},
      {"measurement": "MIC", "setting": "[1]; K. pneumoniae 515746 (OXA-48), second line", "result": 16, "unit": "µg/mL"},
      {"measurement": "MIC", "setting": "[1]; K. pneumoniae 664438 (OXA-48)", "result": 16, "unit": "µg/mL"},
      {"measurement": "MIC", "setting": "[1]; K. pneumoniae 664439 (OXA-48)", "result": 16, "unit": "µg/mL"},
      {"measurement": "MIC", "setting": "[1]; K. pneumoniae 664509 (OXA-48)", "result": "≥ 64", "unit": "µg/mL"},
      {"measurement": "MIC", "setting": "[1]; K. pneumoniae 664518 (OXA-48)", "result": 32, "unit": "µg/mL"},
      {"measurement": "MIC", "setting": "[1]; K. pneumoniae 722870 (OXA-48)", "result": 8, "unit": "µg/mL"},
      {"measurement": "MIC", "setting": "[1]; K. pneumoniae BAH (OXA-204)", "result": "≥ 64", "unit": "µg/mL"},
      {"measurement": "MIC", "setting": "[1]; K. pneumoniae DEL (OXA-232)", "result": "≥ 64", "unit": "µg/mL"},
      {"measurement": "MIC", "setting": "[1]; K. pneumoniae DOV (OXA-48)", "result": 8, "unit": "µg/mL"},
      {"measurement": "MIC", "setting": "[1]; K. pneumoniae KIRK (OXA-162)", "result": 8, "unit": "µg/mL"},
      {"measurement": "MIC", "setting": "[1]; K. pneumoniae SI-C17 (OXA-48)", "result": "≥ 64", "unit": "µg/mL"},
      {"measurement": "MIC", "setting": "E. coli ESBL4 (CTX-M-15)", "result": 32, "unit": "µg/mL"},
      {"measurement": "MIC", "setting": "[2]", "result": 64, "unit": "µg/mL"},
      {"measurement": "MIC50", "setting": "[3]", "result": 16, "unit": "µg/mL"},
      {"measurement": "MIC90", "setting": "[3]", "result": "≥ 64", "unit": "µg/mL"},
      {"measurement": "MIC90", "setting": "[3]; [4]", "result": "≥ 64", "unit": "µg/mL"},
      {"measurement": "MIC", "setting": "[3]; E. cloacae 847426 (KPC)", "result": "≥ 64", "unit": "µg/mL"},
      {"measurement": "MIC", "setting": "[3]; E. cloacae 847429 (KPC)", "result": 16, "unit": "µg/mL"},
      {"measurement": "MIC", "setting": "[3]; E. cloacae OIMGH49 (p99 AmpC, ACT-2, KPC-2, TEM-1)", "result": "≥ 64", "unit": "µg/mL"},
      {"measurement": "MIC", "setting": "[3]; E. coli 786978 (KPC)", "result": 32, "unit": "µg/mL"},
      {"measurement": "MIC", "setting": "[3]; K. oxytoca 847537 (KPC)", "result": "≥ 64", "unit": "µg/mL"},
      {"measurement": "MIC", "setting": "[3]; K. oxytoca 847539 (KPC)", "result": 0.5, "unit": "µg/mL"},
      {"measurement": "MIC", "setting": "[3]; K. pneumoniae 155140 (AmpC, KPC-2, SHV-12, TEM-1)", "result": "≥ 64", "unit": "µg/mL"},
      {"measurement": "MIC", "setting": "[3]; K. pneumoniae 845661 (KPC)", "result": 32, "unit": "µg/mL"},
      {"measurement": "MIC", "setting": "[3]; K. pneumoniae 845662 (KPC)", "result": 16, "unit": "µg/mL"},
      {"measurement": "MIC", "setting": "[3]; K. pneumoniae 845665 (KPC)", "result": 32, "unit": "µg/mL"},
      {"measurement": "MIC", "setting": "[3]; K. pneumoniae 845667 (KPC)", "result": 16, "unit": "µg/mL"},
      {"measurement": "MIC", "setting": "[3]; K. pneumoniae 845670 (KPC)", "result": 0.5, "unit": "µg/mL"},
      {"measurement": "MIC", "setting": "[3]; K. pneumoniae 845904 (KPC)", "result": 1, "unit": "µg/mL"},
      {"measurement": "MIC", "setting": "[3]; K. pneumoniae 847204 (KPC)", "result": 16, "unit": "µg/mL"},
      {"measurement": "MIC", "setting": "[3]; K. pneumoniae 847375 (KPC)", "result": 8, "unit": "µg/mL"},
      {"measurement": "MIC", "setting": "[3]; K. pneumoniae 847378 (KPC)", "result": 8, "unit": "µg/mL"},
      {"measurement": "MIC", "setting": "[3]; K. pneumoniae 847379 (KPC)", "result": 8, "unit": "µg/mL"},
      {"measurement": "MIC", "setting": "[3]; K. pneumoniae 847383 (KPC)", "result": 8, "unit": "µg/mL"},
      {"measurement": "MIC", "setting": "[3]; K. pneumoniae 847384 (KPC)", "result": 8, "unit": "µg/mL"},
      {"measurement": "MIC", "setting": "[3]; K. pneumoniae 847387 (KPC)", "result": 16, "unit": "µg/mL"},
      {"measurement": "MIC", "setting": "[3]; K. pneumoniae 847747 (KPC)", "result": 4, "unit": "µg/mL"},
      {"measurement": "MIC", "setting": "[3]; K. pneumoniae 848832 (KPC)", "result": 16, "unit": "µg/mL"},
      {"measurement": "MIC", "setting": "[3]; K. pneumoniae 848844 (KPC)", "result": 16, "unit": "µg/mL"},
      {"measurement": "MIC", "setting": "[3]; K. pneumoniae 897067 (KPC)", "result": 2, "unit": "µg/mL"}
    ]}
  ]
}
